Measured values from the supplement of paper PMC4862054.

Key:
Assay in all cases: normalised viability (% of control), CellTiter-Blue; higher = more viable cells (about 100 = DMSO control)
Conditions in all cases: incubation time: 72 h
[1] = tested on: CAL-148
Experimental: (§1)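 DSRT, CellTiter-Blue viability, 72 h incubation. Signal is normalised to DMSO and benzethonium chloride controls. Value is the normalised response at dose 8.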

[2] = tested on: DU-4475
Experimental: as §1

[3] = tested on: MDA-MB-453
Experimental: as §1

[4] = tested on: CAL-85-1
Experimental: as §1

[5] = tested on: HDQ-P1
Experimental: as §1

[6] = tested on: CAL-51
Experimental: as §1

[7] = tested on: CAL-148; remark: listed apart in the source
Experimental: (§2)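 DSRT, CellTiter-Blue viability, 72 h incubation. Signal is normalised to DMSO and benzethonium chloride controls. Value is the normalised response at dose 6.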

[8] = tested on: DU-4475; remark: listed apart in the source
Experimental: as §2

[9] = tested on: MDA-MB-453; remark: listed apart in the source
Experimental: as §2

[10] = tested on: CAL-85-1; remark: listed apart in the source
Experimental: as §2

[11] = tested on: HDQ-P1; remark: listed apart in the source
Experimental: as §2

[12] = tested on: CAL-51; remark: listed apart in the source
Experimental: as §2

[13] = tested on: CAL-148; remark: listed apart in the source
Experimental: (§3)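 DSRT, CellTiter-Blue viability, 72 h incubation. Signal is normalised to DMSO and benzethonium chloride controls. Value is the normalised response at dose 7.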

[14] = tested on: DU-4475; remark: listed apart in the source
Experimental: as §3

[15] = tested on: MDA-MB-453; remark: listed apart in the source
Experimental: as §3

[16] = tested on: CAL-85-1; remark: listed apart in the source
Experimental: as §3

[17] = tested on: HDQ-P1; remark: listed apart in the source
Experimental: as §3

[18] = tested on: CAL-51; remark: listed apart in the source
Experimental: as §3

| SMILES | normalised viability [1] [%] | normalised viability [2] [%] | normalised viability [3] [%] | normalised viability [4] [%] | normalised viability [5] [%] | normalised viability [6] [%] | normalised viability [7] [%] | normalised viability [8] [%] | normalised viability [9] [%] | normalised viability [10] [%] | normalised viability [11] [%] | normalised viability [12] [%] | also measured |
| --- | --- | --- | --- | --- | --- | --- | --- | --- | --- | --- | --- | --- | --- |
| CN1CCC(COc2cnc(-c3cccc(Cn4nc(-c5cccc(C#N)c5)ccc4=O)c3)nc2)CC1 (3000 nM) | 79.8 | 108 | 63.8 | 87.3 | 85.4 | 84.4 |  |  |  |  |  |  |  |
| CN(C)C/C=C/C(=O)Nc1cc2c(Nc3ccc(F)c(Cl)c3)ncnc2cc1O[C@H]1CCOC1 [Afatinib] (3000 nM) | 58.2 | 92.7 | 30 | 39.6 | 19.4 | 86.2 |  |  |  |  |  |  |  |
| CN1CC[C@H](c2c(O)cc(O)c3c(=O)cc(-c4ccccc4Cl)oc23)[C@H](O)C1 [Alvocidib] (3000 nM) | 14.4 | 1.28 | 7.79 | 3.02 | 13.7 | 4.88 |  |  |  |  |  |  |  |
| Nc1nc(Cl)nc2c1ncn2[C@H]1C[C@H](O)[C@@H](CO)O1 [Cladribine] (300 nM) | 103 | 102 | 96.9 | 92.9 | 96.3 | 104 |  |  |  |  |  |  |  |
| Nc1ccn([C@@H]2O[C@H](CO)[C@@H](O)[C@@H]2O)c(=O)n1 [Cytarabine] (3000 nM) | 34.8 | 26.1 | 62.5 | 70.1 | 86.7 | 16.4 |  |  |  |  |  |  |  |
| Cc1c2oc3c(C)ccc(C(=O)N[C@@H]4C(=O)N[C@H](C(C)C)C(=O)N5CCC[C@H]5C(=O)N(C)CC(=O)N(C)[C@@H](C(C)C)C(=O)O[C@@H]4C)c3nc-2c(C(=O)N[C@@H]2C(=O)N[C@H](C(C)C)C(=O)N3CCC[C@H]3C(=O)N(C)CC(=O)N(C)[C@@H](C(C)C)C(=O)O[C@@H]2C)c(N)c1=O [Dactinomycin] (300 nM) | 11.4 | 1.26 | 6.05 | 2.52 | 9.3 | 5.05 |  |  |  |  |  |  |  |
| COc1cccc2c1C(=O)c1c(O)c3c(c(O)c1C2=O)C[C@@](O)(C(=O)CO)C[C@@H]3O[C@H]1C[C@H](N)[C@H](O)[C@H](C)O1 [Doxorubicin] (300 nM) | 31.9 | 39.4 | 70.6 | 54 | 58 | 33.5 |  |  |  |  |  |  |  |
| Cc1ccc(F)c(NC(=O)Nc2ccc(-c3cccc4[nH]nc(N)c34)cc2)c1 [Linifanib] (300 nM) | 104 | 105 | 113 | 103 | 111 | 101 |  |  |  |  |  |  |  |
| COc1cc(Nc2ncc3c(n2)-c2ccc(Cl)cc2C(c2c(F)cccc2OC)=NC3)ccc1C(=O)O [MLN8237] (300 nM) |  |  |  |  |  |  | 49.2 | 9.79 | 64.7 | 44 | 44.1 | 35.9 |  |
| COc1cc(Nc2ncc3c(n2)-c2ccc(Cl)cc2C(c2c(F)cccc2OC)=NC3)ccc1C(=O)O [MLN8237] (1000 nM) |  |  |  |  |  |  |  |  |  |  |  |  | normalised viability [13]: 36.9%; normalised viability [14]: 16.5%; normalised viability [15]: 68.9%; normalised viability [16]: 69.1%; normalised viability [17]: 54.2%; normalised viability [18]: 27.2% |
| COc1cc(Nc2ncc3c(n2)-c2ccc(Cl)cc2C(c2c(F)cccc2OC)=NC3)ccc1C(=O)O [MLN8237] (3000 nM) | 28.8 | 18.3 | 60.1 | 69.2 | 58 | 26.2 |  |  |  |  |  |  |  |
| S=c1[nH]cnc2nc[nH]c12 [Mercaptopurine] (300 nM) |  |  |  |  |  |  | 102 | 112 | 110 | 83.8 | 76.6 | 97.8 |  |
| S=c1[nH]cnc2nc[nH]c12 [Mercaptopurine] (3000 nM) | 90.8 | 114 | 115 | 83.3 | 88.9 | 90.1 |  |  |  |  |  |  |  |
| Clc1ccc(C(c2ccccc2Cl)C(Cl)Cl)cc1 (stereo not drawn) [Mitotane] (300 nM) |  |  |  |  |  |  | 101 | 95 | 110 | 94.5 | 92.5 | 109 |  |
| Clc1ccc(C(c2ccccc2Cl)C(Cl)Cl)cc1 (stereo not drawn) [Mitotane] (3000 nM) | 103 | 96.2 | 113 | 94.6 | 91.7 | 111 |  |  |  |  |  |  |  |
| COc1cccc2cc(-c3nc([C@H]4CC[C@H](C(=O)O)CC4)n4ncnc(N)c34)[nH]c12 [OSI-027] (300 nM) |  |  |  |  |  |  | 76.1 | 82.5 | 66.1 | 75.5 | 37.9 | 74.3 |  |
| COc1cccc2cc(-c3nc([C@H]4CC[C@H](C(=O)O)CC4)n4ncnc(N)c34)[nH]c12 [OSI-027] (3000 nM) | 46.4 | 69.1 | 19.9 | 32.9 | 31.1 | 42.9 |  |  |  |  |  |  |  |

| SMILES | normalised viability [1] [%] | normalised viability [2] [%] | normalised viability [3] [%] | normalised viability [4] [%] | normalised viability [5] [%] | normalised viability [6] [%] | normalised viability [7] [%] | normalised viability [8] [%] | normalised viability [9] [%] | normalised viability [10] [%] | normalised viability [11] [%] | normalised viability [12] [%] | also measured |
| --- | --- | --- | --- | --- | --- | --- | --- | --- | --- | --- | --- | --- | --- |
| OC[C@H]1O[C@@H](n2cnc3c2N=CNC[C@H]3O)C[C@@H]1O [Pentostatin] (300 nM) |  |  |  |  |  |  | 111 | 93.1 | 108 | 97.8 | 82.3 | 94.3 |  |
| OC[C@H]1O[C@@H](n2cnc3c2N=CNC[C@H]3O)C[C@@H]1O [Pentostatin] (3000 nM) | 112 | 90.9 | 96.8 | 96.4 | 96.8 | 95.8 |  |  |  |  |  |  |  |
| N#CC[C@H](C1CCCC1)n1cc(-c2ncnc3[nH]ccc23)cn1 [Ruxolitinib] (300 nM) |  |  |  |  |  |  | 95.1 | 114 | 78.4 | 92 | 73.3 | 86.7 |  |
| N#CC[C@H](C1CCCC1)n1cc(-c2ncnc3[nH]ccc23)cn1 [Ruxolitinib] (3000 nM) | 87.7 | 114 | 94 | 114 | 105 | 105 |  |  |  |  |  |  |  |
| C=CC[C@@H]1/C=C(\C)C[C@H](C)C[C@H](OC)[C@H]2O[C@@](O)(C(=O)C(=O)N3CCCC[C@H]3C(=O)O[C@H](/C(C)=C/[C@@H]3CC[C@@H](O)[C@H](OC)C3)[C@H](C)[C@@H](O)CC1=O)[C@H](C)C[C@@H]2OC [Tacrolimus] (300 nM) |  |  |  |  |  |  | 106 | 99.6 | 111 | 101 | 119 | 103 |  |
| C=CC[C@@H]1/C=C(\C)C[C@H](C)C[C@H](OC)[C@H]2O[C@@](O)(C(=O)C(=O)N3CCCC[C@H]3C(=O)O[C@H](/C(C)=C/[C@@H]3CC[C@@H](O)[C@H](OC)C3)[C@H](C)[C@@H](O)CC1=O)[C@H](C)C[C@@H]2OC [Tacrolimus] (3000 nM) | 99.2 | 121 | 102 | 100 | 116 | 99.2 |  |  |  |  |  |  |  |
| C=CCNC1=C2C[C@@H](C)C[C@H](OC)[C@H](O)[C@@H](C)/C=C(\C)[C@H](OC(N)=O)[C@@H](OC)/C=C\C=C(/C)C(=O)NC(=CC1=O)C2=O [Tanespimycin] (300 nM) |  |  |  |  |  |  | 19.7 | 1.35 | 8.64 | 47.2 | 28.8 | 48.2 |  |
| C=CCNC1=C2C[C@@H](C)C[C@H](OC)[C@H](O)[C@@H](C)/C=C(\C)[C@H](OC(N)=O)[C@@H](OC)/C=C\C=C(/C)C(=O)NC(=CC1=O)C2=O [Tanespimycin] (3000 nM) | 17.2 | 0.57 | 8.29 | 23 | 24.7 | 11.3 |  |  |  |  |  |  |  |
| CO[C@H]1C[C@@H]2CC[C@@H](C)[C@@](O)(O2)C(=O)C(=O)N2CCCC[C@H]2C(=O)O[C@H]([C@H](C)C[C@@H]2CC[C@@H](OC(=O)C(C)(CO)CO)[C@H](OC)C2)CC(=O)[C@H](C)/C=C(\C)[C@@H](O)[C@@H](OC)C(=O)[C@H](C)C[C@H](C)/C=C/C=C/C=C/1C [Temsirolimus] (30 nM) |  |  |  |  |  |  | 40.4 | 54.4 | 30.1 | 56.3 | 58.3 | 41.8 |  |
| CO[C@H]1C[C@@H]2CC[C@@H](C)[C@@](O)(O2)C(=O)C(=O)N2CCCC[C@H]2C(=O)O[C@H]([C@H](C)C[C@@H]2CC[C@@H](OC(=O)C(C)(CO)CO)[C@H](OC)C2)CC(=O)[C@H](C)/C=C(\C)[C@@H](O)[C@@H](OC)C(=O)[C@H](C)C[C@H](C)/C=C/C=C/C=C/1C [Temsirolimus] (300 nM) | 33.7 | 50.3 | 26.2 | 57.4 | 69.1 | 37.2 |  |  |  |  |  |  |  |
| C[C@]1(c2nc3c(C(N)=O)cccc3[nH]2)CCCN1 [Veliparib] (300 nM) |  |  |  |  |  |  | 100 | 89.9 | 101 | 85.2 | 65.5 | 105 |  |
| C[C@]1(c2nc3c(C(N)=O)cccc3[nH]2)CCCN1 [Veliparib] (3000 nM) | 91.8 | 86.2 | 109 | 92.2 | 82.9 | 108 |  |  |  |  |  |  |  |
| CC[C@]1(O)C[C@@H]2CN(CCc3c([nH]c4ccccc34)[C@@](C(=O)OC)(c3cc4c(cc3OC)N(C)[C@H]3[C@@](O)(C(=O)OC)[C@H](OC(C)=O)[C@]5(CC)C=CCN6CC[C@]43[C@@H]65)C2)C1 [Vinblastine] (30 nM) |  |  |  |  |  |  | 17.2 | 67.4 | 29.1 | 36.2 | 31.5 | 49.7 |  |
| CC[C@]1(O)C[C@@H]2CN(CCc3c([nH]c4ccccc34)[C@@](C(=O)OC)(c3cc4c(cc3OC)N(C)[C@H]3[C@@](O)(C(=O)OC)[C@H](OC(C)=O)[C@]5(CC)C=CCN6CC[C@]43[C@@H]65)C2)C1 [Vinblastine] (300 nM) | 17.7 | 20.9 | 24.4 | 30.8 | 33.5 | 16.9 |  |  |  |  |  |  |  |
| CS(=O)(=O)c1ccc(C(=O)Nc2ccc(Cl)c(-c3ccccn3)c2)c(Cl)c1 [Vismodegib] (300 nM) |  |  |  |  |  |  | 81.3 | 102 | 102 | 95.7 | 44 | 106 |  |
| CS(=O)(=O)c1ccc(C(=O)Nc2ccc(Cl)c(-c3ccccn3)c2)c(Cl)c1 [Vismodegib] (3000 nM) | 83.3 | 112 | 95 | 96.4 | 103 | 108 |  |  |  |  |  |  |  |
